One block for each molecule: values may come before it.
Legend:
[1] = Inhibition of Plasmodium falciparum 3D7 EF2
[2] = target: cGMP-dependent protein kinase (Plasmodium falciparum, UniProt W7JX98); test: Inhibition of Plasmodium falciparum NF54 PKG
[3] = target: Plasmepsin V (Plasmodium vivax, UniProt A0A0H4FQ60); test: Inhibition of recombinant Plasmodium vivax Plasmepsin V
Plasmepsin V, sequence (A0A0H4FQ60 whole entry): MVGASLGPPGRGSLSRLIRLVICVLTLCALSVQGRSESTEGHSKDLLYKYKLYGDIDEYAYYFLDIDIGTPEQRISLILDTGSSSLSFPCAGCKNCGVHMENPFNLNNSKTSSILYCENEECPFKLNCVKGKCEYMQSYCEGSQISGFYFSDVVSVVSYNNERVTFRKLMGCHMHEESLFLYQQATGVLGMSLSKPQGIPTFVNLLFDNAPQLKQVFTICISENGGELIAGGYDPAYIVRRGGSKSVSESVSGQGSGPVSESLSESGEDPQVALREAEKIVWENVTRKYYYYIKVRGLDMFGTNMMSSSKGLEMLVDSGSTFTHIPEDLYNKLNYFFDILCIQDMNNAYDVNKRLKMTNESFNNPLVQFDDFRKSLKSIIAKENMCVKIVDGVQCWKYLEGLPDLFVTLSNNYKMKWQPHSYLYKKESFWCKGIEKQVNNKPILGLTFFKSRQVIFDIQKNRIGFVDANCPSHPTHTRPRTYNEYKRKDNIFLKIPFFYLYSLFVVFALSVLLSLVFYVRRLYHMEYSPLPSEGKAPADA

cGMP-dependent protein kinase, sequence (W7JX98 whole entry): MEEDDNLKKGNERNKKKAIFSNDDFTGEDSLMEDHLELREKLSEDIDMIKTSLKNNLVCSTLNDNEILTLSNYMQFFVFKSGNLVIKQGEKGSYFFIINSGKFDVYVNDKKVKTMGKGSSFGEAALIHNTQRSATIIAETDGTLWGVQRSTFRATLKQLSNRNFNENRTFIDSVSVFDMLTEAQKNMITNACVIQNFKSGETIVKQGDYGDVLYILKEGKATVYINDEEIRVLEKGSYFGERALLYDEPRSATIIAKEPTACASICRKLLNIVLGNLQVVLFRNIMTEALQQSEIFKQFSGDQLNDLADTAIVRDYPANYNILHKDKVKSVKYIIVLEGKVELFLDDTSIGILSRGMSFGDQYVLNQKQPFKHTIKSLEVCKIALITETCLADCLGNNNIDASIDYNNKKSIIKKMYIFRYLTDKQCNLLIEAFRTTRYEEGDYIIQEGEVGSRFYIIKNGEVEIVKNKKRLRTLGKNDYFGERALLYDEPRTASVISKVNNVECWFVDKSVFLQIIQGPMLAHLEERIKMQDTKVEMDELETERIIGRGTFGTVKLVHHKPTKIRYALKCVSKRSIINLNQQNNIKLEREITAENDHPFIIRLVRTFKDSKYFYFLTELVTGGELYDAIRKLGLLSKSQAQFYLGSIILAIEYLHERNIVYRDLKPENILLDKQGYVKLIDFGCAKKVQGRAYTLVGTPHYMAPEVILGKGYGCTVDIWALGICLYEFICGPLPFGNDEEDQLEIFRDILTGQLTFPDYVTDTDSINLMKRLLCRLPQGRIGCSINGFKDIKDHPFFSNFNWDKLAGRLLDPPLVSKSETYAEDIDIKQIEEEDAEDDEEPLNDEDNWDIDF

- IC50 [1]: 2 nM
SMILES: O=C(NCCN1CCCC1)c1cc(-c2ccc(CN3CCOCC3)cc2)nc2ccc(F)cc12 [CABAMIQUINE]

- IC50 [2]: 0.16 nM
SMILES: CN(C)Cc1ccn2c(-c3ccnc(NCC4CC4)n3)c(-c3ccc(F)c(NS(C)(=O)=O)c3)nc2c1

- IC50 [3]: 0.2 nM
SMILES: CC(C)C[C@H](NC(=O)[C@@H](NC(=O)[C@H](CCONC(=N)N)NC(=O)OCc1ccccc1)C(C)C)[C@@H](O)CC(=O)NCCc1ccccc1

— ChEMBL document CHEMBL5537173, “Emerging Drug Targets for Antimalarial Drug Discovery: Validation and Insights into Molecular Mechanisms of Function” (J Med Chem, 2024)
